Results as given in ChEMBL document CHEMBL6153046, “Semisynthesis of Glycosmis pentaphylla Alkaloid Derivatives: Pyranoacridone-Hydroxamic Acid Cytotoxic Conjugates with HDAC and Topoisomerase II α Dual Inhibitory Activity” (J Nat Prod, 2025).
Calls of active or inactive are those of the source. No cut-off for these calls is given here.

Key:
[1] = tested on: MCF7; experiment: Cytotoxicity against human MCF-7 cells assessed as cell viability incubated for 96 hrs by MTT assay; format: functional, cell-based; conditions: MCF7, 96 h
[2] = tested on: SCC-25; experiment: Cytotoxicity against human SCC-25 cells assessed as cell viability incubated for 96 hrs by MTT assay; format: functional, cell-based; conditions: SCC-25, 96 h
[3] = tested on: Calu-3; experiment: Cytotoxicity against human CALU-3 cells assessed as cell viability incubated for 96 hrs by MTT assay; format: functional, cell-based; conditions: Calu-3, 96 h
[4] = Cytotoxicity against human Oral epithelial cell assessed as cell viability incubated for 96 hrs by MTT assay; conditions: for IC50 at 96 h: human, oral epithelial cells; for IC50: oral epithelial cell
[5] = target: DNA topoisomerase 2-alpha (Homo sapiens) (UniProt P11388); experiment: Inhibition of human topoisomerase II alpha using kinetoplast DNA as substrate incubated for 30 mins; conditions: dose 10-100 µM
Sequence of DNA topoisomerase 2-alpha (Homo sapiens) (P11388 whole entry): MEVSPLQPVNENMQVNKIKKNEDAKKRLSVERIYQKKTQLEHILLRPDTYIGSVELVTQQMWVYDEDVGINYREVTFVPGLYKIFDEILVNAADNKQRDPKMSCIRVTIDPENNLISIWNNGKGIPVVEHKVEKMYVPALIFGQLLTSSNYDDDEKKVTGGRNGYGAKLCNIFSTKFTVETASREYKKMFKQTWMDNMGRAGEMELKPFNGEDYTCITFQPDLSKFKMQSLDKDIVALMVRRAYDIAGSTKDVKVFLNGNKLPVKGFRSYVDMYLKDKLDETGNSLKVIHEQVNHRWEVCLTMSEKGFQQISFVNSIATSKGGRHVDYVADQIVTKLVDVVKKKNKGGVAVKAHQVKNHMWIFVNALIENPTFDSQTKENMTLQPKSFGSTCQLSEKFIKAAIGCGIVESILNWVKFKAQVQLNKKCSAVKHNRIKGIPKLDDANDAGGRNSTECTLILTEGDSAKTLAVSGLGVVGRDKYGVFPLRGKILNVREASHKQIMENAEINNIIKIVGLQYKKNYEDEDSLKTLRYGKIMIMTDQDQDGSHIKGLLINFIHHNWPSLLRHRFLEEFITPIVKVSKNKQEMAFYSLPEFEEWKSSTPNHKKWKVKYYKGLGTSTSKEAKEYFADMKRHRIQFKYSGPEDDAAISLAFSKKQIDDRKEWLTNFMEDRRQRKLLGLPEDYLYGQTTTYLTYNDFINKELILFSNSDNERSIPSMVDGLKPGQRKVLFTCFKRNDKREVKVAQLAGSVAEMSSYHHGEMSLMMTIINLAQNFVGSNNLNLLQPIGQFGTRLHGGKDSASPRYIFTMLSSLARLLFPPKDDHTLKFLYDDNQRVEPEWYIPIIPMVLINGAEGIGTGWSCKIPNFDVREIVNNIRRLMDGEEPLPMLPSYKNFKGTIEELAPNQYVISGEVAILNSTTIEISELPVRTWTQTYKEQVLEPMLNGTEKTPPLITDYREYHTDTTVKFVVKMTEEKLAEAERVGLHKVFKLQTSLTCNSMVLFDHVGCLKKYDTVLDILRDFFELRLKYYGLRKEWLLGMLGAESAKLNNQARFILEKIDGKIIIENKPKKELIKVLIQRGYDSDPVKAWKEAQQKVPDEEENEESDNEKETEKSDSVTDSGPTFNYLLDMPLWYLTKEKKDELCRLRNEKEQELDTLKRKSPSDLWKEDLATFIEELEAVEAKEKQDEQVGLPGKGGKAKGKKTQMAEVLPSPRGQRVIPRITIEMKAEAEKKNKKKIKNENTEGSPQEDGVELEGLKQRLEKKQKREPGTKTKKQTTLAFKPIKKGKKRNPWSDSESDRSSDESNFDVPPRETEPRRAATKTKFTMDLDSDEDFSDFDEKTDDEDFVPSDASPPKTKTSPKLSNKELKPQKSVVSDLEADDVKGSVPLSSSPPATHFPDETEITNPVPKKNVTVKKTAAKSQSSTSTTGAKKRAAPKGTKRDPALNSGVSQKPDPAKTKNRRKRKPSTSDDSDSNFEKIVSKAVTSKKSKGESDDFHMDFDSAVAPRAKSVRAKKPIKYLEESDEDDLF

[6] = tested on: SCC-25; experiment: Induction of apoptosis in human SCC-25 cells assessed as early apoptotic cells at 200 uM incubated for 48 hrs by Annexin V-Alexa fluor 488 and propidium iodide staining based flow cytometry relative to control; format: functional
[7] = tested on: SCC-25; experiment: Induction of apoptosis in human SCC-25 cells assessed as viable at 200 uM incubated for 48 hrs by Annexin V-Alexa fluor 488 and propidium iodide staining based flow cytometry relative to control; format: functional
[8] = target: DNA topoisomerase 2-alpha (Homo sapiens) (UniProt P11388); conditions: dose 2.0 mM, time 30.0 min
[9] = tested on: SCC-25; experiment: Induction of apoptosis in human SCC-25 cells assessed as necrotic cells at 200 uM incubated for 48 hrs by Annexin V-Alexa fluor 488 and propidium iodide staining based flow cytometry relative to control; format: functional
[10] = tested on: SCC-25; experiment: Induction of apoptosis in human SCC-25 cells assessed as late apoptotic cells at 200 uM incubated for 48 hrs by Annexin V-Alexa fluor 488 and propidium iodide staining based flow cytometry relative to control; format: functional
[11] = target: DNA topoisomerase 2-alpha (Homo sapiens) (UniProt P11388); experiment: Inhibition of human topoisomerase II alpha using kinetoplast DNA as substrate at 10 microM incubated for 30 mins
[12] = tested on: SCC-25; experiment: Induction of apoptosis in human SCC-25 cells assessed as early apoptotic cells at 0.1 uM incubated for 48 hrs by Annexin V-Alexa fluor 488 and propidium iodide staining based flow cytometry relative to control; format: functional
[13] = tested on: SCC-25; experiment: Induction of apoptosis in human SCC-25 cells assessed as early apoptotic cells at 1 uM incubated for 48 hrs by Annexin V-Alexa fluor 488 and propidium iodide staining based flow cytometry relative to control; format: functional
[14] = tested on: SCC-25; experiment: Induction of apoptosis in human SCC-25 cells assessed as necrotic cells at 10 uM incubated for 48 hrs by Annexin V-Alexa fluor 488 and propidium iodide staining based flow cytometry relative to control; format: functional
[15] = tested on: SCC-25; experiment: Induction of apoptosis in human SCC-25 cells assessed as necrotic cells at 1 uM incubated for 48 hrs by Annexin V-Alexa fluor 488 and propidium iodide staining based flow cytometry relative to control; format: functional
[16] = tested on: SCC-25; experiment: Induction of apoptosis in human SCC-25 cells assessed as viable at 0.1 uM incubated for 48 hrs by Annexin V-Alexa fluor 488 and propidium iodide staining based flow cytometry relative to control; format: functional
[17] = tested on: SCC-25; experiment: Induction of apoptosis in human SCC-25 cells assessed as late apoptotic cells at 10 uM incubated for 48 hrs by Annexin V-Alexa fluor 488 and propidium iodide staining based flow cytometry relative to control; format: functional
[18] = tested on: SCC-25; experiment: Induction of apoptosis in human SCC-25 cells assessed as early apoptotic cells at 10 uM incubated for 48 hrs by Annexin V-Alexa fluor 488 and propidium iodide staining based flow cytometry relative to control; format: functional
[19] = tested on: SCC-25; experiment: Induction of apoptosis in human SCC-25 cells assessed as viable at 10 uM incubated for 48 hrs by Annexin V-Alexa fluor 488 and propidium iodide staining based flow cytometry relative to control; format: functional
[20] = tested on: SCC-25; experiment: Induction of apoptosis in human SCC-25 cells assessed as viable at 1 uM incubated for 48 hrs by Annexin V-Alexa fluor 488 and propidium iodide staining based flow cytometry relative to control; format: functional
[21] = tested on: SCC-25; experiment: Induction of apoptosis in human SCC-25 cells assessed as necrotic cells at 0.1 uM incubated for 48 hrs by Annexin V-Alexa fluor 488 and propidium iodide staining based flow cytometry relative to control; format: functional
[22] = tested on: SCC-25; experiment: Induction of apoptosis in human SCC-25 cells assessed as late apoptotic cells at 1 uM incubated for 48 hrs by Annexin V-Alexa fluor 488 and propidium iodide staining based flow cytometry relative to control; format: functional
[23] = tested on: SCC-25; experiment: Induction of apoptosis in human SCC-25 cells assessed as late apoptotic cells at 0.1 uM incubated for 48 hrs by Annexin V-Alexa fluor 488 and propidium iodide staining based flow cytometry relative to control; format: functional

COc1cc2c(c3c1c(=O)c1ccccc1n3CCCCCC(=O)NO)C=CC(C)(C)O2
IC50 [1]: 40.8 µM
IC50 [2]: 14.8 µM
IC50 [3]: 18 µM
IC50 at 96 h [4]: > 100 µM

COc1cc2c(c3c1c(=O)c1ccccc1n3CC(=O)NO)C=CC(C)(C)O2
IC50 [1]: > 100 µM
IC50 [2]: 41.5 µM
IC50 [3]: 61.8 µM
IC50 [4]: Not_determined

COc1cc2c(c3c1c(=O)c1ccccc1n3CCCCCCC(=O)NO)C=CC(C)(C)O2
IC50 [1]: 6.12 µM
IC50 [2]: 1.11 µM
IC50 [3]: 4.37 µM
inhibition [5]: Dose-dependent-effect
IC50 at 96 h [4]: 60.2 µM

COc1cc2c(c3c1c(=O)c1ccccc1n3CCCC(=O)NO)C=CC(C)(C)O2
IC50 [1]: > 100 µM
IC50 [2]: 36 µM
IC50 [3]: 36.8 µM
IC50 [4]: Not_determined

COc1cc([C@@H]2c3cc4c(cc3[C@@H](O[C@@H]3O[C@@H]5CO[C@@H](C)O[C@H]5[C@H](O)[C@H]3O)[C@H]3COC(=O)[C@H]23)OCO4)cc(OC)c1O [ETOPOSIDE]
Activity [6]: 2.76%
IC50 [1]: 55.6 µM
IC50 [2]: 3.4 µM
IC50 [3]: 0.6 µM
Activity [7]: 65.5%
inhibition [8]: Active
Activity [9]: 13.3%
IC50 [4]: Not_determined
Activity [10]: 17.2%

Cn1c2ccccc2c(=O)c2c(OCCCCCCC(=O)NO)cc3c(c21)C=CC(C)(C)O3
IC50 [1]: 5.7 µM
IC50 [2]: 0.7 µM
IC50 [3]: 10.6 µM
inhibition [5]: Dose-dependent-effect
IC50 at 96 h [4]: > 100 µM

COc1cc2c(c3c1c(=O)c1ccccc1n3Cc1cccc(C(=O)NO)c1)C=CC(C)(C)O2
IC50 [1]: 80.1 µM
IC50 [2]: 39.3 µM
IC50 [3]: 42 µM
IC50 [4]: Not_determined

Cn1c2ccccc2c(=O)c2c(OCCCC(=O)NO)cc3c(c21)C=CC(C)(C)O3
IC50 [1]: 2.8 µM
IC50 [2]: 2.2 µM
IC50 [3]: 3.2 µM
inhibition [5]: Dose-dependent-effect
IC50 at 96 h [4]: 27 µM

COc1cc2c(c3c1c(=O)c1ccccc1n3CCCCC(=O)NO)C=CC(C)(C)O2
IC50 [1]: > 100 µM
IC50 [2]: > 100 µM
IC50 [3]: 29.5 µM
IC50 [4]: Not_determined

Cn1c2ccccc2c(=O)c2c(OCC(=O)NO)cc3c(c21)C=CC(C)(C)O3
IC50 [1]: 10.9 µM
IC50 [2]: 1.2 µM
IC50 [3]: 4 µM
inhibition [5]: Dose-dependent-effect
IC50 at 96 h [4]: > 100 µM

Cn1c2ccccc2c(=O)c2c(OCc3ccc(C(=O)NO)cc3)cc3c(c21)C=CC(C)(C)O3
IC50 [1]: 4.71 µM
IC50 [2]: 1.66 µM
IC50 [3]: 1.81 µM
IC50 at 96 h [4]: > 100 µM

Cn1c2ccccc2c(=O)c2c(O)cc3c(c21)C=CC(C)(C)O3 [NORACRONYCINE]
IC50 [1]: 187 µM
IC50 [2]: 14.1 µM
IC50 [3]: 97.5 µM
IC50 [4]: Not_determined

Cn1c2ccccc2c(=O)c2c(OCc3cccc(C(=O)NO)c3)cc3c(c21)C=CC(C)(C)O3
IC50 [1]: 6.62 µM
IC50 [2]: 23.1 µM
IC50 [3]: 6.53 µM
inhibition [11]: Active
IC50 at 96 h [4]: > 100 µM

Cn1c2ccccc2c(=O)c2c(OCCCCC(=O)NO)cc3c(c21)C=CC(C)(C)O3
IC50 [1]: 1.03 µM
IC50 [2]: 0.35 µM
IC50 [3]: 1.51 µM
Activity [12]: 0.63%
Activity [13]: 1.13%
Activity [14]: 33.1%
inhibition [5]: Dose-dependent-effect
Activity [15]: 7.49%
Activity [16]: 96.1%
Activity [17]: 53.1%
Activity [18]: 0.15%
Activity [19]: 13.7%
Activity [20]: 87%
Activity [21]: 1.96%
IC50 at 96 h [4]: > 100 µM
Activity [22]: 4.35%
Activity [23]: 1.35%

COc1cc2c(c3c1c(=O)c1ccccc1n3Cc1ccc(C(=O)NO)cc1)C=CC(C)(C)O2
IC50 [1]: 19.7 µM
IC50 [2]: 7.7 µM
IC50 [3]: 14.2 µM
inhibition [5]: Dose-dependent-effect
IC50 at 96 h [4]: 82.5 µM

Cn1c2ccccc2c(=O)c2c(OCCCCCC(=O)NO)cc3c(c21)C=CC(C)(C)O3
IC50 [1]: 8.3 µM
IC50 [2]: 9.7 µM
IC50 [3]: 16.1 µM
inhibition [5]: Dose-dependent-effect
IC50 at 96 h [4]: 24.5 µM

COc1cc2c(c3[nH]c4ccccc4c(=O)c13)C=CC(C)(C)O2
IC50 [1]: 191 µM
IC50 [2]: 21.2 µM
IC50 [3]: 13.9 µM
IC50 [4]: Not_determined
